Data set [1] is described as follows: Drug metabolism in Crl:CD (SD) rat at 1 mg/kg, iv assessed as N-(5-cyanopyridin-2-yl)-7-formyl-3,4-dihydro-1,8-naphthyridine-1(2H)-carboxamide metabolite formation by LC-MS/MS analysis. It counts as ADME, organism-based. To be noted: in vivo.
A short description of data set [2]: Drug metabolism in rat liver microsomes assessed as N-(5-cyanopyridin-2-yl)-7-formyl-3,4-dihydro-1,8-naphthyridine-1(2H)-carboxamide metabolite formation in presence of NADPH by LC-MS analysis. It counts as ADME, Microsome. A general note: Microsomes from liver hold many membrane-bound enzymes, among them those of drug oxidation.

Structures are written as SMILES.

With `N#Cc1ccc(NC(=O)N2CCCc3ccc(CO)nc32)nc1`, the Drug metabolism in data set [1] and in data set [2] was 1.3 nM in each case.

These data come from ChEMBL document CHEMBL4715854, “Discovery of Roblitinib (FGF401) as a Reversible-Covalent Inhibitor of the Kinase Activity of Fibroblast Growth Factor Receptor 4” (J Med Chem, 2020).
